Data taken from patent US20150098963A1, “METHODS AND COMPOSITIONS FOR IMPROVING THE APPEARANCE OF SKIN” (priority 2013, published 2015).
Ends that are not written are not given here.

System: SIRT6
Assay: SIRT6 expression by immunohistochemistry in Normal Human Epidermal Keratinocytes
Assay type: cell-based
Conditions: 1% and 3% of a 50 ppm peptide solution, 48 h treatment, FIG. 2
Description: SIRT6 is a member of the conserved family of sirtuin proteins which are associated with metabolism and longevity. SIRT6 is a histone 3, lysine 9 (H3K9) deacetylase and is primarily involved in DNA repair and telomere stability. The peptide of (SEQ ID No. 5) Gly-Ala-Gly-Val-Ser-Ala-Glu-NH2 was tested for Sirt6 stimulating activity as follows.
• Normal Human Epidermal Keratinocytes p3 • EpiLife Medium (Invitrogen) • Human Keratinocyte Growth Supplement (Invitrogen) • 1× Dulbecco's Phosphate Buffered Saline (DPBS) made from: • 10× DPBS (Mediatech) • Distilled, Deionized Water • Peptide of SEQ ID No. 5 • Rabbit polyclonal antibody to Sirt6 (Abcam) • Alexa Fluor 488 donkey anti-rabbit IgG (H+L) (Invitrogen) • Triton-X 100 (Fisher) • Albumin, Bovine (Sigma) • Vectashield with 4′,6-diamidino-2-phenylindole (DAPI) (Vector)
• 1. Cells were plated into 4 well chamber slides @ 10,000 cells/chamber and incubated at 37° C., 5% CO2 & 95% humidity for 24 hours. • 2. The peptide of SEQ ID No. 5 was prepared as follows: • 2.1. Dissolved 5 mg peptide in 5 ml medium to make a 1000 ppm stock solution. • 2.2. Diluted the stock solution to 50 ppm by combining 400 μl 1000 ppm stock solution with 7.6 ml medium • 2.3. Prepared a 3% of the 50 ppm solution by combining 1.5 ml 50 ppm stock with 48.5 ml medium • 2.4. Prepared a 1% of the 50 ppm solution by combining 0.5 ml 50 ppm stock with […] medium • 3. […]

Question: “Gly-Ala-Gly-Val-Ser-Ala-Glu-NH2 (GAGVSAE-NH2) [SEQ ID No. 5]” was tested. Which SIRT6 expression did it give?
Answer: The SIRT6 expression was “dose dependent increase in SIRT6 expression”.
